Where “and” joins values, the source holds several entries; their conditions need not be identical. Identical values can stand only once.
Target: c-Met (Homo sapiens, UniProt P08581)
Test: Ki determination for the inhibition of c-Met, coupled enzyme system
Assay type: biochemical
Conditions: 200 μM ATP, 10 μM polyGluTyr, 80 nM c-Met, 30° C.
Method in brief: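 Coupled pyruvate kinase/lactate dehydrogenase NADH assay with 80 nM c-Met, 200 μM ATP, 10 μM polyGluTyr in pH 7.5 HEPES, 1.5% DMSO at 30° C. Compound (0.006–12.5 μM final, 12-point) preincubated 10 min; ATP started reaction, rates read over 10 min; Ki derived from rate versus inhibitor concentration.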

Chain of c-Met (P08581 25-1390): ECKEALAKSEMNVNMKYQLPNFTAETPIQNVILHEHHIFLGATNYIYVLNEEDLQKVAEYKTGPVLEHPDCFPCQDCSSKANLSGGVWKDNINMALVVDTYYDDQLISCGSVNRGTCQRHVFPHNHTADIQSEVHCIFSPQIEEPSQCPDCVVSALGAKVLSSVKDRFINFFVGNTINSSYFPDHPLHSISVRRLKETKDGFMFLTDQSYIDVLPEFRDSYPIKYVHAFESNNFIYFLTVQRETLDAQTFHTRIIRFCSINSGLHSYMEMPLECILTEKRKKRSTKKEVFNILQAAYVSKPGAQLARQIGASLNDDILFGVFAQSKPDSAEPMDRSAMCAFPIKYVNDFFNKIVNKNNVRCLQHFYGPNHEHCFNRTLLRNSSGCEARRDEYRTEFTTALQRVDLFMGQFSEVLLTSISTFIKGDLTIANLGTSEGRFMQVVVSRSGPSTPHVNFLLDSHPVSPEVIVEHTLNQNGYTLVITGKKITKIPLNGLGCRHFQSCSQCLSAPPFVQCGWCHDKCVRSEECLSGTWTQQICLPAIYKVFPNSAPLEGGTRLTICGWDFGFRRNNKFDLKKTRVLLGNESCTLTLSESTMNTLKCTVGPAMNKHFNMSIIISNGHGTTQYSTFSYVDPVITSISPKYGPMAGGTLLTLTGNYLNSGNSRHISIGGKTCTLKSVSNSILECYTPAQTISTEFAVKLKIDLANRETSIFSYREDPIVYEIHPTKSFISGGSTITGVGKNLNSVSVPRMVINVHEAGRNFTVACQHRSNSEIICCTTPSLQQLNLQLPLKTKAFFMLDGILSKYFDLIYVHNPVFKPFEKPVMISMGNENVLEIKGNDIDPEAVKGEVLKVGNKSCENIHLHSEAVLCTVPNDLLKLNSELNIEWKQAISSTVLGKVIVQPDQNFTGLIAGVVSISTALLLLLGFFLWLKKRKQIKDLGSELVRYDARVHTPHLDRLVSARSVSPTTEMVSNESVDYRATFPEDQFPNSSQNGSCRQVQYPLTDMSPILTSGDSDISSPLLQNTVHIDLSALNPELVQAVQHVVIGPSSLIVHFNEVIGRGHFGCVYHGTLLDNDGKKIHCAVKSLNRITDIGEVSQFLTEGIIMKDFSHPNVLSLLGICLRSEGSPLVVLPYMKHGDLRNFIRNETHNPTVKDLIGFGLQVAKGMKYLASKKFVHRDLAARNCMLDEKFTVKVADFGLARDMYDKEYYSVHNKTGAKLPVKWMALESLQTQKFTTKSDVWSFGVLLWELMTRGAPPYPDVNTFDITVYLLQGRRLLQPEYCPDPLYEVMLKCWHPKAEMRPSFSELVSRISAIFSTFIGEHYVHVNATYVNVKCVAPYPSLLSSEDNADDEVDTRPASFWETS

SMILES | Ki
Nc1[nH]c2ncccc2c1-c1oncc1-c1cccc(F)c1F [Compound 152] | 1000 to 12500 nM
O=c1[nH]ccc2c(-c3oncc3-c3cccc(F)c3F)c[nH]c12 [Compound 145, 3-[4-(2,3-Difluoro-phenyl)-isoxazol-5-yl]-1,6-dihydro-pyrrolo[2,3-c]pyridin-7-one] | 1000 to 12500 nM
CC(=O)N1CCC(c2cnc3[nH]cc(-c4oncc4-c4cccc(F)c4F)c3c2)CC1 [Compound 63, 1-(4-{3-[4-(2,3-Difluoro-phenyl)-isoxazol-5-yl]-1H-pyrrolo[2,3-b]pyridin-5-yl}-piperidin-1-yl)-ethanone] | < 200 nM
CN1CCN(C(=O)[C@H]2C[C@H]2c2cnc3[nH]cc(-c4oncc4-c4cccc(F)c4F)c3c2)CC1 (relative stereo) [Compound 143, cis-(2-{3-[4-(2,3-Difluoro-phenyl)-isoxazol-5-yl]-1H-pyrrolo[2,3-b]pyridin-5-yl}-cyclopropyl)-(4-methyl-piperazin-1-yl)-methanone] | 200 to 1000 nM and 1000 to 12500 nM
N#CCC(=O)N1CCC(c2cnc3[nH]cc(-c4oncc4-c4cccc(F)c4F)c3c2)CC1 [Compound 64, 3-(4-{3-[4-(2,3-Difluoro-phenyl)-isoxazol-5-yl]-1H-pyrrolo[2,3-b]pyridin-5-yl}-piperidin-1-yl)-3-oxo-propionitrile] | < 200 nM
c1cnc2[nH]cc(-c3oncc3C3CCCCC3)c2c1 [Compound 47, 3-(4-Cyclohexyl-isoxazol-5-yl)-1H-pyrrolo[2,3-b]pyridine] | 1000 to 12500 nM
Fc1c(Cl)cccc1-c1cnoc1-c1c[nH]c2ncccc12 [Compound 42, 3-[4-(3-Chloro-2-fluoro-phenyl)-isoxazol-5-yl]-1H-pyrrolo[2,3-b]pyridine] | < 200 nM
Fc1cccc(Cc2cnoc2-c2c[nH]c3ncccc23)c1F [Compound 36, 3-[4-(2,3-Difluoro-benzyl)-isoxazol-5-yl]-1H-pyrrolo[2,3-b]pyridine] | 1000 to 12500 nM
Cc1noc(-c2c[nH]c3ncccc23)c1-c1cccc(F)c1F [Compound 134, 3-[4-(2,3-Difluoro-phenyl)-3-methyl-isoxazol-5-yl]-1H-pyrrolo[2,3-b]pyridine] | 200 to 1000 nM
CN(C)c1ccnc2[nH]cc(-c3oncc3-c3cccc(F)c3F)c12 [Compound 56, {3-[4-(2,3-Difluoro-phenyl)-isoxazol-5-yl]-1H-pyrrolo[2,3-b]pyridin-4-yl}-dimethyl-amine] | 1000 to 12500 nM
CS(=O)(=O)n1ccc2cc(-c3cnc4[nH]cc(-c5oncc5-c5cccc(F)c5F)c4c3)cnc21 [Compound 97, 3′-[4-(2,3-Difluoro-phenyl)-isoxazol-5-yl]-1-methanesulfonyl-1H, 1′H-[5,5′]bi[pyrrolo[2,3-b]pyridinyl]] | < 200 nM
Clc1cccc(-c2cnoc2-c2c[nH]c3ncccc23)c1Cl [Compound 2, 3-[4-(2,3-Dichloro-phenyl)-isoxazol-5-yl]-1H-pyrrolo[2,3-b]pyridine] | < 200 nM

The next lines start with the values.

Ki | SMILES
< 200 nM | CN(C)Cc1cc(Cl)nc(-c2cnc3[nH]cc(-c4oncc4-c4cccc(F)c4F)c3c2)c1 [Compound 81, (2-Chloro-6-{3-[4-(2,3-difluoro-phenyl)-isoxazol-5-yl]-1H-pyrrolo[2,3-b]pyridin-5-yl}-pyridin-4-ylmethyl)-dimethyl-amine]
< 200 nM | Fc1cccc(-c2cnoc2-c2c[nH]c3ncc(Br)cc23)c1F [Compound 37, 5-Bromo-3-[4-(2,3-difluoro-phenyl)-isoxazol-5-yl]-1H-pyrrolo[2,3-b]pyridine]
< 200 nM | Fc1cccc(-c2cnoc2-c2c[nH]c3ncc(-c4ccccc4)cc23)c1F [Compound 58, 3-[4-(2,3-Difluoro-phenyl)-isoxazol-5-yl]-5-phenyl-1H-pyrrolo[2,3-b]pyridine]
1000 to 12500 nM | CN(C)c1ccnc(-c2cnc3[nH]cc(-c4oncc4-c4cccc(F)c4F)c3c2)c1 [Compound 80, (2-{3-[4-(2,3-Difluoro-phenyl)-isoxazol-5-yl]-1H-pyrrolo[2,3-b]pyridin-5-yl}-pyridin-4-yl)-dimethyl-amine]
< 200 nM | CNc1ccc2c(-c3oncc3-c3cccc(F)c3F)c[nH]c2n1 [Compound 102, {3-[4-(2,3-Difluoro-phenyl)-isoxazol-5-yl]-1H-pyrrolo[2,3-b]pyridin-6-yl}-methyl-amine]
< 200 nM | CN(C)C(=O)c1ccc(-c2cnc3[nH]cc(-c4oncc4-c4cccc(F)c4F)c3c2)nc1 [Compound 79, 6-{3-[4-(2,3-Difluoro-phenyl)-isoxazol-5-yl]-1H-pyrrolo [2,3-b]pyridin-5-yl}-N,N-dimethyl-nicotinamide]
< 200 nM | CS(=O)(=O)Nc1ccc(-c2cnc3[nH]cc(-c4oncc4-c4cccc(F)c4F)c3c2)cc1 [Compound 98, N-(4-{3-[4-(2,3-Difluoro-phenyl)-isoxazol-5-yl]-1H-pyrrolo[2,3-b]pyridin-5-yl}-phenyl)-methane sulfonamide]
< 200 nM | Fc1cccc(-c2cnoc2-c2c[nH]c3ncc(-c4ncccn4)cc23)c1F [Compound 75, 3-[4-(2,3-Difluoro-phenyl)-isoxazol-5-yl]-5-pyrimidin-2-yl-1H-pyrrolo[2,3-b]pyridine]
< 200 nM | Fc1cccnc1-c1cnc2[nH]cc(-c3oncc3-c3cccc(F)c3F)c2c1 [Compound 74, 3-[4-(2,3-Difluoro-phenyl)-isoxazol-5-yl]-5-(3-fluoro-pyridin-2-yl)-1H-pyrrolo[2,3-b]pyridine]
< 200 nM | Fc1cccc(-c2cnoc2-c2c[nH]c3ncc(/C=C/n4cncn4)cc23)c1F [Compound 133, 3-[4-(2,3-Difluoro-phenyl)-isoxazol-5-yl]-5-(2-[1,2,4]triazol-1-yl-vinyl)-1H-pyrrolo[2,3-b]pyridine]
< 200 nM | C=Cc1cnc2[nH]cc(-c3oncc3-c3cccc(F)c3F)c2c1 [Compound 66, 3-[4-(2,3-Difluoro-phenyl)-isoxazol-5-yl]-5-vinyl-1H-pyrrolo[2,3-b]pyridine]

Reference: patent US7446199B2, “Compositions useful as inhibitors of protein kinases” (Vertex Pharmaceuticals Incorporated, priority 2003, dated 2008)
